{"source": "PubChem BioAssay (NCI)", "assay_in_all_cases": "growth of human tumour cells (NCI), 48 h", "key": {"786-0 renal": {"test_system": "786-0 renal"}, "A498 renal": {"test_system": "A498 renal"}, "A549 NSCLC": {"test_system": "A549 NSCLC"}, "ACHN renal": {"test_system": "ACHN renal"}, "BT-549 breast": {"test_system": "BT-549 breast"}, "CAKI-1 renal": {"test_system": "CAKI-1 renal"}, "CCRF-CEM leukemia": {"test_system": "CCRF-CEM leukemia"}, "COLO 205 colon": {"test_system": "COLO 205 colon"}, "DU-145 prostate": {"test_system": "DU-145 prostate"}, "HCT-116 colon": {"test_system": "HCT-116 colon"}, "HCT-15 colon": {"test_system": "HCT-15 colon"}, "HL-60(TB) leukemia": {"test_system": "HL-60(TB) leukemia"}, "HOP-62 NSCLC": {"test_system": "HOP-62 NSCLC"}, "HOP-92 NSCLC": {"test_system": "HOP-92 NSCLC"}, "HS 578T breast": {"test_system": "HS 578T breast"}, "HT29 colon": {"test_system": "HT29 colon"}, "IGROV1 ovarian": {"test_system": "IGROV1 ovarian"}, "KM12 colon": {"test_system": "KM12 colon"}, "LOX IMVI melanoma": {"test_system": "LOX IMVI melanoma"}, "M14 melanoma": {"test_system": "M14 melanoma"}, "MALME-3M melanoma": {"test_system": "MALME-3M melanoma"}, "MCF7 breast": {"test_system": "MCF7 breast"}, "MDA-MB-231 breast": {"test_system": "MDA-MB-231 breast"}, "MDA-MB-435": {"test_system": "MDA-MB-435"}, "MDA-N": {"test_system": "MDA-N"}, "MOLT-4 leukemia": {"test_system": "MOLT-4 leukemia"}, "NCI-H226 lung": {"test_system": "NCI-H226 lung"}, "NCI-H23 lung": {"test_system": "NCI-H23 lung"}, "NCI-H460 lung": {"test_system": "NCI-H460 lung"}, "NCI-H522 lung": {"test_system": "NCI-H522 lung"}, "NCI/ADR-RES ovarian": {"test_system": "NCI/ADR-RES ovarian"}, "OVCAR-3 ovarian": {"test_system": "OVCAR-3 ovarian"}, "OVCAR-4 ovarian": {"test_system": "OVCAR-4 ovarian"}, "PC-3 prostate": {"test_system": "PC-3 prostate"}, "RPMI-8226 leukemia": {"test_system": "RPMI-8226 leukemia"}, "RXF 393 renal": {"test_system": "RXF 393 renal"}, "SF-268 CNS": {"test_system": "SF-268 CNS"}, "SF-295 CNS": {"test_system": "SF-295 CNS"}, "SF-539 CNS": {"test_system": "SF-539 CNS"}, "SK-MEL-2 melanoma": {"test_system": "SK-MEL-2 melanoma"}, "SK-MEL-28 melanoma": {"test_system": "SK-MEL-28 melanoma"}, "SK-MEL-5 melanoma": {"test_system": "SK-MEL-5 melanoma"}, "SK-OV-3 ovarian": {"test_system": "SK-OV-3 ovarian"}, "SN12C renal": {"test_system": "SN12C renal"}, "SNB-19 CNS": {"test_system": "SNB-19 CNS"}, "SR leukemia": {"test_system": "SR leukemia"}, "SW-620 colon": {"test_system": "SW-620 colon"}, "T-47D breast": {"test_system": "T-47D breast"}, "TK-10 renal": {"test_system": "TK-10 renal"}, "U251 CNS": {"test_system": "U251 CNS"}, "UACC-257 melanoma": {"test_system": "UACC-257 melanoma"}, "UACC-62 melanoma": {"test_system": "UACC-62 melanoma"}, "UO-31 renal": {"test_system": "UO-31 renal"}}, "note": "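The compound was tested at five concentrations on cells cultured in 96-well plates, with a 48-hour exposure period. TGI denotes the concentration required for complete inhibition of growth.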", "data": [{"molecule": "COc1cc(C=O)cc(/C=N/N=C/c2ccccc2O)c1O", "values": [{"measurement": "TGI", "setting": "786-0 renal", "value": 50.6, "unit": "µM"}, {"measurement": "TGI", "setting": "A498 renal", "value": "> 100", "unit": "µM"}, {"measurement": "TGI", "setting": "A549 NSCLC", "value": "> 100", "unit": "µM"}, {"measurement": "TGI", "setting": "ACHN renal", "value": 67.4, "unit": "µM"}, {"measurement": "TGI", "setting": "BT-549 breast", "value": 52.6, "unit": "µM"}, {"measurement": "TGI", "setting": "CAKI-1 renal", "value": 49, "unit": "µM"}, {"measurement": "TGI", "setting": "CCRF-CEM leukemia", "value": 70.3, "unit": "µM"}, {"measurement": "TGI", "setting": "COLO 205 colon", "value": 82.9, "unit": "µM"}, {"measurement": "TGI", "setting": "DU-145 prostate", "value": "> 100", "unit": "µM"}, {"measurement": "TGI", "setting": "HCT-116 colon", "value": 67.3, "unit": "µM"}, {"measurement": "TGI", "setting": "HCT-15 colon", "value": "> 100", "unit": "µM"}, {"measurement": "TGI", "setting": "HL-60(TB) leukemia", "value": 0.0201, "unit": "µM"}, {"measurement": "TGI", "setting": "HOP-62 NSCLC", "value": "> 100", "unit": "µM"}, {"measurement": "TGI", "setting": "HOP-92 NSCLC", "value": 39.8, "unit": "µM"}, {"measurement": "TGI", "setting": "HS 578T breast", "value": 10.3, "unit": "µM"}, {"measurement": "TGI", "setting": "HT29 colon", "value": "> 100", "unit": "µM"}, {"measurement": "TGI", "setting": "IGROV1 ovarian", "value": "> 100", "unit": "µM"}, {"measurement": "TGI", "setting": "KM12 colon", "value": "> 100", "unit": "µM"}, {"measurement": "TGI", "setting": "LOX IMVI melanoma", "value": 54.5, "unit": "µM"}, {"measurement": "TGI", "setting": "M14 melanoma", "value": 56.8, "unit": "µM"}, {"measurement": "TGI", "setting": "MALME-3M melanoma", "value": 18.1, "unit": "µM"}, {"measurement": "TGI", "setting": "MCF7 breast", "value": "> 100", "unit": "µM"}, {"measurement": "TGI", "setting": "MDA-MB-231 breast", "value": 76.4, "unit": "µM"}, {"measurement": "TGI", "setting": "MDA-MB-435", "value": "> 100", "unit": "µM"}, {"measurement": "TGI", "setting": "MDA-N", "value": "> 100", "unit": "µM"}, {"measurement": "TGI", "setting": "MOLT-4 leukemia", "value": 2.05, "unit": "µM"}, {"measurement": "TGI", "setting": "NCI-H226 lung", "value": 58.6, "unit": "µM"}, {"measurement": "TGI", "setting": "NCI-H23 lung", "value": 54, "unit": "µM"}, {"measurement": "TGI", "setting": "NCI-H460 lung", "value": "> 100", "unit": "µM"}, {"measurement": "TGI", "setting": "NCI-H522 lung", "value": "> 100", "unit": "µM"}, {"measurement": "TGI", "setting": "NCI/ADR-RES ovarian", "value": "> 100", "unit": "µM"}, {"measurement": "TGI", "setting": "OVCAR-3 ovarian", "value": 65.9, "unit": "µM"}, {"measurement": "TGI", "setting": "OVCAR-4 ovarian", "value": "> 100", "unit": "µM"}, {"measurement": "TGI", "setting": "PC-3 prostate", "value": 85.9, "unit": "µM"}, {"measurement": "TGI", "setting": "RPMI-8226 leukemia", "value": 45.3, "unit": "µM"}, {"measurement": "TGI", "setting": "RXF 393 renal", "value": "> 100", "unit": "µM"}, {"measurement": "TGI", "setting": "SF-268 CNS", "value": "> 100", "unit": "µM"}, {"measurement": "TGI", "setting": "SF-295 CNS", "value": 8.16, "unit": "µM"}, {"measurement": "TGI", "setting": "SF-539 CNS", "value": 34.2, "unit": "µM"}, {"measurement": "TGI", "setting": "SK-MEL-2 melanoma", "value": 47, "unit": "µM"}, {"measurement": "TGI", "setting": "SK-MEL-28 melanoma", "value": 73.8, "unit": "µM"}, {"measurement": "TGI", "setting": "SK-MEL-5 melanoma", "value": "> 100", "unit": "µM"}, {"measurement": "TGI", "setting": "SK-OV-3 ovarian", "value": 59.7, "unit": "µM"}, {"measurement": "TGI", "setting": "SN12C renal", "value": 64.4, "unit": "µM"}, {"measurement": "TGI", "setting": "SNB-19 CNS", "value": "> 100", "unit": "µM"}, {"measurement": "TGI", "setting": "SR leukemia", "value": 51.2, "unit": "µM"}, {"measurement": "TGI", "setting": "SW-620 colon", "value": "> 100", "unit": "µM"}, {"measurement": "TGI", "setting": "T-47D breast", "value": 28.2, "unit": "µM"}, {"measurement": "TGI", "setting": "TK-10 renal", "value": "> 100", "unit": "µM"}, {"measurement": "TGI", "setting": "U251 CNS", "value": "> 100", "unit": "µM"}, {"measurement": "TGI", "setting": "UACC-257 melanoma", "value": "> 100", "unit": "µM"}, {"measurement": "TGI", "setting": "UACC-62 melanoma", "value": "> 100", "unit": "µM"}, {"measurement": "TGI", "setting": "UO-31 renal", "value": 99.1, "unit": "µM"}]}]}
